Laboratory results taken from the supplement of paper PMC10307832.

Columns and labels:
Experiment in all cases: relative viability (nuclei count vs DMSO), 5 days (fraction); higher = more cells survive
[1] = compound: CCn1c(-c2nonc2N)nc2cnc(Oc3cccc(NC(=O)c4ccc(OCCN5CCOCC5)cc4)c3)cc21 + Cc1nc(Nc2ncc(C(=O)Nc3c(C)cccc3Cl)s2)cc(N2CCN(CCO)CC2)n1 [Dasatinib] (partner 0.075 µM)
How it was run: (§1)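 Dosing by pin tool came one day after lung cancer cell lines were seeded in 1536-well plates, using either one drug or a fixed anchor-drug dose plus five library-drug doses (not always all listed) in √10 steps. After 5 days, nuclei were counted on 4× images. Relative viability is treated-well nuclei count divided by vehicle-well nuclei count, and values are medians of duplicate plates.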

[2] = compound: CCn1c(-c2nonc2N)nc2cnc(Oc3cccc(NC(=O)c4ccc(OCCN5CCOCC5)cc4)c3)cc21 + N=C(N)NC(=N)NCCc1ccccc1 [Phenformin] (partner 250 µM)
How it was run: as §1

Mirin + Decitabine = compound: N=C1NC(=O)/C(=C/c2ccc(O)cc2)S1 [Mirin] + Nc1ncn([C@H]2C[C@H](O)[C@@H](CO)O2)c(=O)n1 [Decitabine] (partner 2 µM)
How it was run: as §1

[3] = compound: CCn1c(-c2nonc2N)nc2cnc(Oc3cccc(NC(=O)c4ccc(OCCN5CCOCC5)cc4)c3)cc21 + NC(=O)Nc1cc(-c2cccc(F)c2)sc1C(=O)N[C@H]1CCCNC1 [AZD7762] (partner 0.2 µM)
How it was run: as §1

Cell Line | relative viability ([1]; first compound 0.04 µM) | relative viability ([1]; first compound 0.1265 µM) | relative viability ([1]; first compound 0.4 µM) | relative viability ([1]; first compound 1.265 µM) | relative viability ([1]; first compound 4 µM) | relative viability ([2]; first compound 0.04 µM) | relative viability ([2]; first compound 0.1265 µM) | relative viability ([2]; first compound 0.4 µM) | relative viability ([2]; first compound 1.265 µM) | relative viability ([2]; first compound 4 µM) | relative viability (Mirin + Decitabine; first compound 0.25 µM) | relative viability (Mirin + Decitabine; first compound 0.7906 µM) | relative viability (Mirin + Decitabine; first compound 2.5 µM) | relative viability (Mirin + Decitabine; first compound 7.906 µM) | relative viability (Mirin + Decitabine; first compound 25 µM) | relative viability ([3]; first compound 0.04 µM) | relative viability ([3]; first compound 0.1265 µM) | relative viability ([3]; first compound 0.4 µM) | relative viability ([3]; first compound 1.265 µM) | relative viability ([3]; first compound 4 µM)
NCI-H520 | 0.166 | 0.174 | 0.166 | 0.163 | 0.139 | 0.887 | 0.631 | 0.404 | 0.306 | 0.288 | 0.531 | 0.563 | 0.494 | 0.374 | 0.479 |  |  |  |  | 
NCI-H661 | 0.672 | 0.519 | 0.593 | 0.422 | 0.426 | 0.258 | 0.253 | 0.203 | 0.23 | 0.195 | 0.587 | 0.569 | 0.539 | 0.501 | 0.525 |  |  |  |  | 
NCI-H1563 | 0.447 | 0.452 | 0.343 | 0.461 | 0.456 | 0.592 | 0.61 | 0.507 | 0.582 | 0.553 |  |  |  |  |  |  |  |  |  | 
NCI-H1623 | 0.655 | 0.797 | 0.529 | 0.543 | 0.606 | 0.629 | 0.594 | 0.499 | 0.536 | 0.605 |  |  |  |  |  |  |  |  |  | 
NCI-H1648 |  |  |  |  |  |  |  |  |  |  | 0.559 |  | 0.51 | 0.525 | 0.418 | 0.978 | 1.02 | 0.981 | 1.09 | 0.693
NCI-H1650 | 0.324 | 0.36 | 0.371 | 0.398 | 0.363 | 0.47 | 0.382 | 0.229 | 0.397 | 0.369 | 0.479 | 0.385 | 0.403 | 0.31 | 0.364 |  |  |  |  | 
NCI-H1703 |  |  |  |  |  |  |  |  |  |  |  |  |  |  |  |  | 0.111 | 0.115 | 0.119 | 0.123
NCI-H2009 | 0.266 | 0.144 | 0.136 | 0.148 | 0.152 | 0.493 | 0.357 | 0.284 | 0.192 | 0.224 | 0.354 | 0.373 | 0.425 | 0.361 | 0.405 |  |  |  |  | 
NCI-H2023 | 0.519 | 0.424 | 0.257 | 0.294 | 0.232 | 0.538 | 0.381 | 0.328 | 0.223 | 0.186 | 0.237 | 0.238 | 0.216 | 0.228 | 0.225 |  |  |  |  | 
NCI-H2228 | 0.592 | 0.519 | 0.431 | 0.407 | 0.421 | 0.41 | 0.31 | 0.329 | 0.318 | 0.331 |  |  |  |  |  |  |  |  |  | 
SK-LU-1 | 0.157 | 0.15 | 0.103 | 0.139 | 0.128 | 0.488 | 0.409 | 0.333 | 0.251 | 0.238 | 0.713 | 0.618 | 0.8 | 0.494 | 0.509 |  |  |  |  | 
SK-MES-1 | 0.429 | 0.256 | 0.224 | 0.244 | 0.172 | 0.695 | 0.655 | 0.515 | 0.271 | 0.257 | 0.347 | 0.446 | 0.372 | 0.292 | 0.329 |  |  |  |  | 
SW 1573 | 0.597 | 0.319 | 0.21 | 0.246 | 0.166 | 0.513 | 0.345 | 0.344 | 0.282 | 0.154 | 0.605 | 0.61 | 0.482 | 0.412 | 0.247 |  |  |  |  | 
